The source of these data is PubChem BioAssay (NCI).

Among the test systems are COLO 205 colon; HOP-62 NSCLC; IGROV1 ovarian; MALME-3M melanoma; MDA-MB-231 breast; OVCAR-5 ovarian; SNB-19 CNS; SW-620 colon; TK-10 renal; U251 CNS.
Common to all, as to assay: NCI tumour cell line growth inhibition, 48 h

SMILES strings stand for the structures. Values joined by “and” are separate entries in the source; they are usually repeats but may differ in a detail not shown here. Equal values may be shown once.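 1) Cells in 96-well plates. 2) Compound, 48 h, 5 concentrations. 3) Linear interpolation between surrounding doses. 4) Unreached endpoint = highest concentration. GI50 is the concentration that inhibits growth by half. TGI: total growth inhibition.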

For the molecule `COc1ccc2c(O)cc3c(c2c1)[C@H](CCl)CN3C(=O)c1cc2cc(NC(=O)CCN3CCOCC3)ccc2[se]1`, the GI50 in the experiment with COLO 205 colon, with HOP-62 NSCLC, in the experiment on IGROV1 ovarian, in the experiment on MALME-3M melanoma, in the experiment with MDA-MB-231 breast and in the experiment with OVCAR-5 ovarian was < 0.001 µM each time. Besides, the GI50 in the experiment on SNB-19 CNS, with SW-620 colon, in the experiment on TK-10 renal and in the experiment with U251 CNS was < 0.001 µM each time. For the same molecule, the TGI was > 10 µM in the experiment on COLO 205 colon; 2.03 µM in the experiment with HOP-62 NSCLC; 1.36 µM in the experiment on IGROV1 ovarian; < 0.001 µM in the experiment with MALME-3M melanoma; 0.105 µM in the experiment on MDA-MB-231 breast; 1.29 µM in the experiment with OVCAR-5 ovarian. The TGI in the experiment on SNB-19 CNS was determined as 0.233 µM; in the experiment with SW-620 colon, 1.05 µM; in the experiment on U251 CNS, 0.385 µM.
Consider `CC(=O)O[C@H](C[C@H](C(C)C)N(C)C(=O)[C@@H](NC(=O)[C@H]1CCCCN1C)C(C)C)c1nc(C(=O)N[C@@H](Cc2ccccc2)C[C@H](C)C(=O)O)c(CCOCc2ccccc2)s1`, for which the GI50 was < 0.001 µM in the experiment with COLO 205 colon; < 0.001 µM with HOP-62 NSCLC; 0.00109 µM with IGROV1 ovarian; < 0.001 µM with MALME-3M melanoma; < 0.001 µM with MDA-MB-231 breast; < 0.001 µM with OVCAR-5 ovarian. The GI50 with SNB-19 CNS is < 0.001 µM; in the experiment with SW-620 colon it was < 0.001 µM; in the experiment with TK-10 renal it was 0.108 µM; with U251 CNS, < 0.001 µM. Besides, the TGI is < 0.001 µM in the experiment on COLO 205 colon; > 10 µM in the experiment on HOP-62 NSCLC; > 10 µM in the experiment with IGROV1 ovarian; > 10 µM in the experiment with MALME-3M melanoma; > 10 µM with OVCAR-5 ovarian; > 10 µM in the experiment on SNB-19 CNS. Also, the TGI in the experiment on SW-620 colon and with TK-10 renal was > 10 µM each time.
Consider `COc1cc(C2=C(c3cn(C)c4ccccc34)COC2=O)cc(OC)c1OC`, for which the GI50 with COLO 205 colon is 0.0648 µM; in the experiment with HOP-62 NSCLC it was 0.123 µM; with IGROV1 ovarian, 0.0771 µM; with MALME-3M melanoma, 0.474 µM; in the experiment on MDA-MB-231 breast it was 0.34 µM; in the experiment with OVCAR-5 ovarian it was 0.479 µM. In addition, the GI50 in the experiment on SNB-19 CNS was 0.16 µM; with SW-620 colon, 0.0444 µM; in the experiment on TK-10 renal it was 0.569 µM; in the experiment on U251 CNS, 0.0731 µM. Also, the TGI is 1.28 µM in the experiment on COLO 205 colon; > 34.8 µM in the experiment with HOP-62 NSCLC; 21.7 µM in the experiment on IGROV1 ovarian; 14.7 µM in the experiment on MALME-3M melanoma; > 100 µM with MDA-MB-231 breast; > 100 µM in the experiment on OVCAR-5 ovarian. Also, the TGI is > 100 µM with SNB-19 CNS, > 100 µM with SW-620 colon, 5.61 µM in the experiment on TK-10 renal and > 100 µM in the experiment with U251 CNS.
`CC1CCC(=O)C(C(=O)CC2CC(=O)NC(=O)C2)C1` (stereo not drawn): the TGI with COLO 205 colon, in the experiment with HOP-62 NSCLC, in the experiment with IGROV1 ovarian, with MALME-3M melanoma, with MDA-MB-231 breast and with OVCAR-5 ovarian was > 100 µM each time. Also, the TGI in the experiment with SNB-19 CNS, with SW-620 colon, in the experiment on TK-10 renal and in the experiment with U251 CNS was > 100 µM throughout.
`COc1cccc(/C(COc2ccc3c(c2)oc(=O)c2cc(OC)ccc23)=N/O)c1`: the GI50 with COLO 205 colon was 4.25 µM; with HOP-62 NSCLC it was 6.9 µM; in the experiment with IGROV1 ovarian, 3.8 µM; in the experiment with MALME-3M melanoma, > 100 µM; in the experiment with MDA-MB-231 breast, 4.37 µM; in the experiment on OVCAR-5 ovarian, > 100 µM. For the same molecule, the GI50 in the experiment on SNB-19 CNS is 3.66 µM; in the experiment on SW-620 colon it was 3.9 µM; in the experiment on TK-10 renal, 16.5 µM; in the experiment on U251 CNS, 4.35 µM. Further, the TGI with COLO 205 colon was > 100 µM; in the experiment with HOP-62 NSCLC, > 100 µM; in the experiment with IGROV1 ovarian it was > 100 µM; with MALME-3M melanoma it was > 100 µM; with MDA-MB-231 breast, 71 µM; with OVCAR-5 ovarian, > 100 µM. Moreover, the TGI in the experiment on SNB-19 CNS, in the experiment with SW-620 colon, with TK-10 renal and in the experiment with U251 CNS was > 100 µM in each case.
Consider `COc1cc(CNc2ccc(SC)cc2)cc(OC)c1OC`, for which the TGI in the experiment on COLO 205 colon was 12.8 µM and 12.4 µM; in the experiment with HOP-62 NSCLC, > 100 µM and 61.1 µM; in the experiment on IGROV1 ovarian, > 82.1 µM and 71.6 µM; in the experiment with MALME-3M melanoma, > 100 µM; with MDA-MB-231 breast, > 100 µM; with OVCAR-5 ovarian, > 92.1 µM and 87.3 µM. Moreover, the TGI was > 100 µM in the experiment on SNB-19 CNS; > 100 µM in the experiment with SW-620 colon; > 93.3 µM and 77.5 µM with TK-10 renal; 61.6 µM and 32.9 µM in the experiment with U251 CNS. Also, the GI50 is 12.1 µM and 4.68 µM in the experiment on HOP-62 NSCLC; 17.2 µM and 7.73 µM with IGROV1 ovarian; 15 µM and 6.23 µM with MDA-MB-231 breast; 25.4 µM and 10.1 µM in the experiment on SNB-19 CNS; 41 µM and 16.7 µM with TK-10 renal; 10.8 µM and 4.13 µM in the experiment on U251 CNS.
Consider `CCOC(=O)c1c[nH]c2oc(/C=N/N3CC(CN4CCOCC4)OC3=O)cc2c1=O` (stereo not drawn), for which the TGI in the experiment on COLO 205 colon, in the experiment on HOP-62 NSCLC, in the experiment on IGROV1 ovarian, in the experiment with MALME-3M melanoma, in the experiment on MDA-MB-231 breast and with OVCAR-5 ovarian was > 100 µM in each case. The TGI in the experiment with SNB-19 CNS, in the experiment on SW-620 colon, with TK-10 renal and in the experiment on U251 CNS was > 100 µM throughout.
With `O=C(Nc1ccc(CO)cc1)c1coc2ccccc2c1=O`, the GI50 in the experiment on COLO 205 colon, in the experiment on HOP-62 NSCLC, in the experiment on IGROV1 ovarian, in the experiment on MALME-3M melanoma, in the experiment on MDA-MB-231 breast and in the experiment with OVCAR-5 ovarian was > 100 µM throughout. In addition, the GI50 in the experiment with SNB-19 CNS, with SW-620 colon, with TK-10 renal and in the experiment on U251 CNS was > 100 µM in each case. Also, the TGI in the experiment on COLO 205 colon, with HOP-62 NSCLC, in the experiment on IGROV1 ovarian, with MALME-3M melanoma, in the experiment with MDA-MB-231 breast and with OVCAR-5 ovarian was > 100 µM throughout. Moreover, the TGI in the experiment with SNB-19 CNS, with SW-620 colon, in the experiment on TK-10 renal and with U251 CNS was > 100 µM throughout.
On to `O=[N+]([O-])c1ccc2c(c1)C(c1ccccc1Cl)=Nc1cn[nH]c1N2`, for which the GI50 is 9.43 µM in the experiment with COLO 205 colon; > 20.7 µM in the experiment on HOP-62 NSCLC; > 23.5 µM in the experiment on IGROV1 ovarian; > 25 µM in the experiment on MALME-3M melanoma; 14.6 µM in the experiment on MDA-MB-231 breast; > 25 µM in the experiment with OVCAR-5 ovarian. The GI50 with SNB-19 CNS was > 25 µM; with SW-620 colon, 15.8 µM; in the experiment with TK-10 renal it was 15.5 µM; in the experiment with U251 CNS, 9.91 µM. Also, the TGI in the experiment on COLO 205 colon, in the experiment with HOP-62 NSCLC, with IGROV1 ovarian, with MALME-3M melanoma, in the experiment on MDA-MB-231 breast and in the experiment on OVCAR-5 ovarian was > 25 µM in each case. In addition, the TGI in the experiment with SNB-19 CNS, in the experiment on SW-620 colon, in the experiment with TK-10 renal and in the experiment with U251 CNS was > 25 µM each time.
Consider `Cn1cc(C2=C(c3cn(CCCCCN)c4ccccc34)C(=O)NC2=O)c2ccccc21`, for which the GI50 in the experiment on COLO 205 colon was 6.06 µM; with HOP-62 NSCLC it was 15.2 µM; with IGROV1 ovarian it was 14.7 µM; in the experiment on MALME-3M melanoma it was 18.4 µM; in the experiment on MDA-MB-231 breast, 17.1 µM; in the experiment with OVCAR-5 ovarian it was > 25 µM. The GI50 with SNB-19 CNS is > 25 µM; in the experiment on SW-620 colon it was 9.64 µM; with TK-10 renal, 10.6 µM; in the experiment with U251 CNS, 10.8 µM. Also, the TGI in the experiment on COLO 205 colon is > 21 µM; in the experiment with HOP-62 NSCLC, > 25 µM; in the experiment on IGROV1 ovarian, > 25 µM; in the experiment on MALME-3M melanoma it was > 25 µM; with MDA-MB-231 breast it was > 25 µM; with OVCAR-5 ovarian, > 25 µM. For the same molecule, the TGI in the experiment on SNB-19 CNS, in the experiment on SW-620 colon, in the experiment on TK-10 renal and with U251 CNS was > 25 µM throughout.
